Values joined by “and” are separate entries in the source; they are usually repeats but may differ in a detail not shown here. Equal entries are not always repeated. Values belong to the molecule of their own block, whether it stands above or below them.
Tests used:
5-oxo-L-prolinase [1] = target: T1, 5-oxo-L-prolinase (Rattus norvegicus, UniProt P97608); assay: Action of 5-oxo-L-prolinase on substrates (products formed); assay type: biochemical; conditions: for Products Formed: ADP: 5 mM ATP, 30 min at 37° C., pyruvate kinase-lactate dehydrogenase coupled assay; for Reaction on incubation with 5-oxo-L-prolinase: in the presence of ATP
T1 construct: 5-Oxo-L-prolinase was isolated from rat kidney and freed of 5-oxoproline by gel filtration; from tissue; host or cells: rat kidney
T1 sequence (P97608 1-1288): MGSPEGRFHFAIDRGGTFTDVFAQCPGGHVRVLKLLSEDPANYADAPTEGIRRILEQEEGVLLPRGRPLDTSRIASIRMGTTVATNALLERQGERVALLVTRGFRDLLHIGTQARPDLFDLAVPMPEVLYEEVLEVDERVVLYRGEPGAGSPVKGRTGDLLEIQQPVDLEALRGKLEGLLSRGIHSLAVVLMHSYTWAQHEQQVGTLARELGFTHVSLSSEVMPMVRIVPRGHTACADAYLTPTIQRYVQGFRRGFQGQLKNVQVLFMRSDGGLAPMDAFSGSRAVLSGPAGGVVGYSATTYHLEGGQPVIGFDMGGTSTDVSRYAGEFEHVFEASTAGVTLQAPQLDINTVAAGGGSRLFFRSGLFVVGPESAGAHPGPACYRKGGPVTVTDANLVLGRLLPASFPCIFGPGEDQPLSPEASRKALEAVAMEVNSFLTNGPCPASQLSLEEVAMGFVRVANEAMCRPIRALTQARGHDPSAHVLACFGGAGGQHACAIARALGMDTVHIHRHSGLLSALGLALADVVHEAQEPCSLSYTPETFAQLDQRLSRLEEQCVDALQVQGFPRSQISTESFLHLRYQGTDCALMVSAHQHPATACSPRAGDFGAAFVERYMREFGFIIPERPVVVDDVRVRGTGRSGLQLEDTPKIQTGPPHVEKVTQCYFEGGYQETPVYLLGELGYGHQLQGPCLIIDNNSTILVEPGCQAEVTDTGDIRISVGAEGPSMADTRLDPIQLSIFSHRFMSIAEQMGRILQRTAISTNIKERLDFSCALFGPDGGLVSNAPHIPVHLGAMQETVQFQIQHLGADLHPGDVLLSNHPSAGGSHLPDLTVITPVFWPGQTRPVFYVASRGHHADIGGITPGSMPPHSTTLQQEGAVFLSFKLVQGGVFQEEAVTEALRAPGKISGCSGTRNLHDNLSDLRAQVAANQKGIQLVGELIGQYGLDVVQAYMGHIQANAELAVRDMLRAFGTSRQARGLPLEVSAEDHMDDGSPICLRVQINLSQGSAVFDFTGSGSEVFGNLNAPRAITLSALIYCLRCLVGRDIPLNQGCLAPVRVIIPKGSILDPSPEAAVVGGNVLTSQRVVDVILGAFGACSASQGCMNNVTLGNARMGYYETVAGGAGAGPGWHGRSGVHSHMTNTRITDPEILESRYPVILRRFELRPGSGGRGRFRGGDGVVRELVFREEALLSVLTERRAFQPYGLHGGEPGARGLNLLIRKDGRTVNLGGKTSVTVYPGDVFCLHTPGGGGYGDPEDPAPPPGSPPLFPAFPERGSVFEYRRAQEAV
Experimental: (§1) In the experiments the reaction mixtures were made up to contain (final volume 0.5 ml) 100 mM Na Hepes (Na salt of N-2-hydroxyethylpiperizine-N'-2ethanesulfonic acid) buffer (pH 8.0), 150 mM KCl, 8 mM MgCl2, 2 mM phosphoenolpyruvate, 5 mM ATP (adenosine triphosphate), pyruvate kinase, in excess, 20 micrograms of 5-oxoprolinase, and the substrate as indicated.
(§2) The L-and D-isomers of 2-oxothiazolidine-4-carboxylate were synthesized by the method set out in Kaneko et al, Bull, Chem. Soc. (Japan) vol. 37, pp. 242-4 (1964) as modified by the method of Shah et al, Cancer Research vol. 39, pp. 3942-7 (1979). 5-Oxo-L-prolinase was isolated from rat kidney and freed of 5-oxoproline by gel filtration. Other chemicals and materials were obtained commercially.
(§3) After incubation ofr 30 min. at 37° C., the reaction mixtures were treated with 0.1 volume of 1 M HCl, and placed at 0° C. for 5 min.; and an equivalent volume of 1 M 2-amino-2-hydroxylmethyl-1,3,-propanediol was added. Portions were analyzed for amino acids by use of a Durrum Model 500 amino acid analyzer. Cysteine was also determined in some experiments by reaction with 5,5'-dithiobis (2-initrobenzoate) (DTNB).

5-oxo-L-prolinase [2] = target: T1, 5-oxo-L-prolinase; assay: Inhibition of utilization of 5-oxo-L-proline (glutamate formation) by the purified enzyme; assay type: biochemical; conditions: 1 mM 5-oxo-L-proline
Experimental: as §1, §2, §3
Energy for the reaction is supplied by the cleavage of ATP. […] The ratio of ADP to cysteine produced increased with time due undoubtedly to the loss of cysteine due to oxidation.

hepatic glutathione = assay: Hepatic glutathione level after injection; assay type: in vivo, mice; conditions: for hepatic glutathione level relative to controls: mice fasted overnight, 6.5 mmol/kilo intraperitoneally (D-isomer: equivalent doses)
Experimental: The effect of injecting mice with L-2-oxothiazolidine-4-carboxylate on the level of hepatic gluathione was studies. […] The maximal effect was observed about 4 hours after injection. […] These findings are indicative of in vivo formation of cysteine after administration of L-2- oxothiazolidine-4-carboxylate.
Mice fasted overnight were injected intraperitoneally with NaCl (controls; dashed line) or with Na L-2-oxothiazolidine-4-carboxylate (6.5 mmol/kilo). At intervals, the mice were sacrificed and the excised liver was homogenized in 5 volumes of 1% picric acid. After centrifugation, the protein-free supernatant solutions were analyzed for glutathione by the method of Tietze, Anal. Biochem 27, 502-22(1969). Analyses were carried out in duplicate. In a number of instances, these values were checked by the 2-vinylpyridine procedure of Griffith, Anal. Biochem. 106; 207-12(1980); good agreement between the two methods was observed. In the figure, the points are mean values and the bars indicate the average deviation from the mean. The numbers in parentheses give the number of animals used. The value for the controls was 4.40±0.9 umol/g.

5-oxoproline metabolism [3] = conditions: previous studies of the inventors; cited from earlier work
liver glutathione = assay: Hepatic glutathione in mice depleted of glutathione (acetoaminophenol); assay type: in vivo
Experimental: Administration of this compound therefore provides a way of getting cysteine into cells. One cannot give cysteine itself without complications since this amino acid is toxic extracellularly. However, when the L-oxothiazolidine compound is injected it enters the cell where it is split giving rise to cysteine within the cell. In a number of clinical situations, for example, after poisoning with excessive pain-killing drugs, e.g., those containing active ingredients known as N-acetyl-para-aminophenol, paracetamol, and acetaminophen, the liver glutathione levels decrease markedly. When cysteine is supplied to liver cells, additional glutathione can be synthesized and thus serve usefully in detoxifying the offending drug. Therefore, L-2-oxothiazolidine-4-carboxylate serves as an intracellular delivery system for cysteine and has potential as a therapeutic agent in situations in which there is depletion of liver glutathione. After acetoaminophenol is given to experimental animals such as mice, the liver glutathione declines rapidly because it is extensively utilized by reaction with the drug. […] For human treatment the L-isomer, preferably in the form of its neutral salt is administered directly into the gastro-intestinal tract or introduced intravenously.

metabolism of glutamate = assay: In vivo metabolism of L-[14C]glutamate (respiratory 14CO2); conditions: mice, 2.5 mmol/kilo intraperitoneally
Experimental: (§4) The in vitro results showing that L-2-oxothiazolidine-4-carboxylate inhibits utilization of 5-oxoproline were confirmed by in vivo experiments. In the latter, animals were injected with 5-oxo-L-[^14 C] proline and the respiratory [^14 CO2 ] produced was collected and measured for several hours. […] However, L-2- oxothiazolidine-4-carboxylate is a much more efficient inhibitor.
(§5) FIG. 3depicts the inhibition of 5-oxoproline metabolism by L-2- oxothiazolidine-4-carboxylate. Mice fasted overnight were injected intraperitoneally with NaCl (Curve 1; open symbols; controls) or with Na L-2-oxothiazolidine-4-carboxylate (2.5 mmol/kilo) (Curve 2; closed symbols). After 10 min., the mice were injected subcutaneously with 5-oxo-L-[^14 C] proline (A) or with L-[^14 C] glutamate (B) (0.02 mmol; 1.1×10^6 cpm). The mice were then placed in metabolic chambers and the respiratory CO2 was collected in ethanolamine/methanol, 1:4 (vol/vol). In A, each curve represents the results on 3 animals; the points are mean values and the bars represent standard deviations from the mean. In B, each curve represents the average of closely-agreeing results obtained from 2 animals.

5-oxoproline metabolism [4] = assay: In vivo inhibition of 5-oxoproline metabolism (respiratory 14CO2 after 5-oxo-L-[14C]proline); design: species or system mice
Experimental: as §4, §5

tissue cysteine = assay: Tissue/liver cysteine after administration; assay type: in vivo, mice

calculated Vmax value (5-oxo-L-prolinase [1]; compared with the L-isomer): higher than that found for the L-isomer | Products Formed: ADP (5-oxo-L-prolinase [1]; substrate 2 mM): 924 nmol | Products Formed: Amino Acid (as glutamate) (5-oxo-L-prolinase [1]; substrate 2 mM, as glutamate): 916 nmol
Compound: O=C1CC[C@@H](C(=O)O)N1 [5-Oxo-L-proline, 5-oxo-L-proline]

Reaction on incubation with 5-oxo-L-prolinase (5-oxo-L-prolinase [1]): No reaction was observed | Products Formed: ADP (5-oxo-L-prolinase [1]; substrate 5 mM): 96 nmol | Products Formed: Amino Acid (5-oxo-L-prolinase [1]; substrate 5 mM, after reduction with KBH4 and reaction with iodoacetamide, footnote: less than 20 nmol): 0 nmol | inhibition of glutamate formation (in words) (5-oxo-L-prolinase [2]; same conditions): did not inhibit glutamate formation
Compound: O=C1N[C@@H](C(=O)O)CS1 [D-2-oxothiazolidine-4-carboxylate]
hepatic glutathione level relative to controls (hepatic glutathione): No such stimulation was observed

Products Formed: ADP (5-oxo-L-prolinase [1]; substrate 2 mM): 930 nmol | Products Formed: Amino Acid (5-oxo-L-prolinase [1]; substrate 2 mM, footnote: less than 5 nmol): 0 nmol
Compound: O=C1NC[C@@H](C(=O)O)N1 [L-2-imidazolidone-4-carboxylate]
in vivo metabolism of 5-oxoproline (5-oxoproline metabolism [3]): markedly inhibits

Reaction on incubation with 5-oxo-L-prolinase (5-oxo-L-prolinase [1]): rapid formation of ADP and cysteine | Products Formed: ADP (5-oxo-L-prolinase [1]; substrate 2 mM): 478 nmol and 499 nmol | Products Formed: Amino Acid (5-oxo-L-prolinase [1]; substrate 2 mM, after conversion to cystine): 463 nmol | Products Formed: Amino Acid (5-oxo-L-prolinase [1]; substrate 2 mM, determined after reduction with KBH4 and reaction with iodoacetamide): 466 nmol | inhibition at 1000 µM (5-oxo-L-prolinase [2]; inhibitor 1 mM): 73% | inhibition at 5000 µM (5-oxo-L-prolinase [2]; inhibitor 5 mM): 92% | inhibition at 10000 µM (5-oxo-L-prolinase [2]; inhibitor 10 mM): 97%
Compound: O=C1N[C@H](C(=O)O)CS1 [L-2-oxothiazolidine-4-carboxylate]
liver glutathione after acetoaminophenol (liver glutathione; mice, given even two hours after the drug): an increase in liver glutathione occurs | hepatic glutathione levels in mice depleted of hepatic glutathione (liver glutathione; mouse, in vivo): restoration of normal hepatic glutathione levels | apparent Km value (5-oxo-L-prolinase [1]; compared with the natural substrate): somewhat lower than that found for the natural substrate | effect on the metabolism of glutamate (metabolism of glutamate): does not have a significant effect | hepatic glutathione level relative to controls (hepatic glutathione): about twice those of the controls | time of maximal effect on hepatic glutathione after injection (hepatic glutathione; mice, 6.5 mmol/kilo intraperitoneally): about 4 hours | formation of respiratory 14CO2 from 5-oxo-L-[14C]proline (5-oxoproline metabolism [4]; mice, 2.5 mmol/kilo intraperitoneally 10 min before label): marked decrease | in vivo inhibitory activity relative to L-2-imidazolidone-4-carboxylate (5-oxoproline metabolism [4]; on a molar basis): at least four times more active | injected 5-oxo-L-[14C]proline dose excreted in urine (5-oxoproline metabolism [4]; treated animals, none found in the urine of the controls): about 16 % of the injected dose | cysteine content of tissues (tissue cysteine; administration to animals): increase in the cysteine content of tissues, especially the liver | free cysteine in acid extracts of the livers (tissue cysteine; amino acid analysis after dithiothreitol reduction and 2-vinylpyridine derivatization): No free cysteine was detected
